From patent US7326721B2 (Hypnion, Inc., priority 2003, dated 2008)
pKi: −log10 of the molar value. Where two headings read alike, the source gives them in different places.

Legend:
[1] = molecular target: T1, M1 muscarinic receptor (Homo sapiens, UniProt P11229); parameters: purchased PerkinElmer, Inc., Wellesley, Mass; host or cells: CHO cells; conditions: reference compounds; read-out: Ki of reference compounds, M1 binding assay; cited from earlier work
T1 sequence (P11229 1-460): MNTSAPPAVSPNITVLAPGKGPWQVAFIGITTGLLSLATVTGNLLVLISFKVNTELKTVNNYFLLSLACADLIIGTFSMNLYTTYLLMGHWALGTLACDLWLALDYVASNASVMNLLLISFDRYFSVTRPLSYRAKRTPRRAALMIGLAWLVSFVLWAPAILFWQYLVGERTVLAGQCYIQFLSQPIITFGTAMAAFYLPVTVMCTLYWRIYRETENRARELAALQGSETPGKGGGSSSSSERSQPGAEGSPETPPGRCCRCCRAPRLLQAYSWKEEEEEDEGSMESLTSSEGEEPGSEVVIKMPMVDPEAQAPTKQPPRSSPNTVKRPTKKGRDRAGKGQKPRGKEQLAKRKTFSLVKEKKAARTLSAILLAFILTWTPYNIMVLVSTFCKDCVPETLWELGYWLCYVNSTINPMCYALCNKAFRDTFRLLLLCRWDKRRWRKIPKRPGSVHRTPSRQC

[2] = test system: adult male Wistar rats; assay: SCORE-2000 sleep-wakefulness, locomotor activity and body temperature monitoring; type: in vivo, rat
[3] = molecular target: T2, H1 histamine receptor (Bos taurus, UniProt P30546); assay: Histamine H1 competitive binding assay ([3H]pyrilamine); parameters: species or system bovine; conditions: bovine receptor; read-out: H1 binding
T2 construct: the receptors were obtained from bovine cerebellar membrane tissue; from tissue; host or cells: bovine cerebellar membranes

[4] = molecular target: T1, M1 muscarinic receptor; assay: Muscarinic M1 binding assay ([3H]-scopolamine, N-methyl chloride)
[5] = molecular target: T3, M2 muscarinic receptor (Homo sapiens, UniProt P08172); assay: Muscarinic M2 binding assay
T3 sequence (P08172 1-466): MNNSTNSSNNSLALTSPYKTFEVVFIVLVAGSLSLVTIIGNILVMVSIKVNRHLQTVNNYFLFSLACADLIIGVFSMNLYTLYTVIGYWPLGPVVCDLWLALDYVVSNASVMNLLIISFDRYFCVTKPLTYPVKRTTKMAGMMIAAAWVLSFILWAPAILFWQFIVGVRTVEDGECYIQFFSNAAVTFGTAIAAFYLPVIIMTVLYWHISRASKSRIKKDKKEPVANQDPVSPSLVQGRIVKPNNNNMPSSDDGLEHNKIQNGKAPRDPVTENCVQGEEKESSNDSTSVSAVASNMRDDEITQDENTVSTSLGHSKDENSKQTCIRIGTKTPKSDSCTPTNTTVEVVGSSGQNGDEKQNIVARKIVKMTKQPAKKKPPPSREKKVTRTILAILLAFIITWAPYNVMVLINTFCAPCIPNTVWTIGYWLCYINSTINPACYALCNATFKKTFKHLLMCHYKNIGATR

[6] = molecular target: M3 muscarinic receptor (Homo sapiens, UniProt P20309); assay: Muscarinic M3 binding assay
[7] = molecular target: Adrenergic, Alpha 1, Non-selective; assay: Table 12 panel: Adrenergic, Alpha 1; type: binding; conditions: read-out: α1 binding
[8] = molecular target: Adrenergic, Alpha 2, Non-selective; assay: Table 12 panel: Adrenergic, Alpha 2; type: binding; conditions: read-out: α2 binding
[9] = molecular target: human H1 receptor (Homo sapiens, UniProt P35367); assay: H1(hR) binding (Table 28)
Experimental: (§1) The comparative data is shown in Table 28, unless otherwise noted, binding was measured with the bovine receptors, H1(hR) is the human H1 receptor, 5HT2a (h) is the human 5HT2a receptor. Binding numbers are presented in nM values.

[10] = molecular target: human 5HT2a receptor (Homo sapiens, UniProt P28223); assay: 5HT2a (h) binding (Table 28)
[11] = molecular target: Dopamine, D1 (UniProt P21728); assay: Dopamine, D1 (human recombinant) binding assay
[12] = molecular target: Dopamine, D1 (human recombinant) (UniProt P14416); assay: Dopamine D2 binding assay (printed as D1 in b555)
Experimental: In vitro binding assays are used to determine H1 binding (i.e., primary target binding) and M1, M2 and M3 binding (i.e., off target binding). […] Similar assays are performed with H1 and dopamine receptors (D1 and D2), and with H1 and adrenergic receptors (α1 and α2).
Dopamine, D1 (human recombinant) binding assay was performed according to published procedures. See, e.g., Jarvie, et al. J. Recept Res., 13(1–4): 573–90 (1993); and Gundlach, et al. Life Sciences, 35(19): 1981–8 (1984) with modifications

[13] = molecular target: 5HT2a (rat) (Rattus norvegicus, UniProt P14842); assay: 5HT2a (rat) binding (Table 28)
Experimental: as §1

[14] = molecular target: hERG (Homo sapiens, UniProt Q12809); conditions: human, 10 µM, pH 7.4
hERG, sequence (Q12809 whole entry): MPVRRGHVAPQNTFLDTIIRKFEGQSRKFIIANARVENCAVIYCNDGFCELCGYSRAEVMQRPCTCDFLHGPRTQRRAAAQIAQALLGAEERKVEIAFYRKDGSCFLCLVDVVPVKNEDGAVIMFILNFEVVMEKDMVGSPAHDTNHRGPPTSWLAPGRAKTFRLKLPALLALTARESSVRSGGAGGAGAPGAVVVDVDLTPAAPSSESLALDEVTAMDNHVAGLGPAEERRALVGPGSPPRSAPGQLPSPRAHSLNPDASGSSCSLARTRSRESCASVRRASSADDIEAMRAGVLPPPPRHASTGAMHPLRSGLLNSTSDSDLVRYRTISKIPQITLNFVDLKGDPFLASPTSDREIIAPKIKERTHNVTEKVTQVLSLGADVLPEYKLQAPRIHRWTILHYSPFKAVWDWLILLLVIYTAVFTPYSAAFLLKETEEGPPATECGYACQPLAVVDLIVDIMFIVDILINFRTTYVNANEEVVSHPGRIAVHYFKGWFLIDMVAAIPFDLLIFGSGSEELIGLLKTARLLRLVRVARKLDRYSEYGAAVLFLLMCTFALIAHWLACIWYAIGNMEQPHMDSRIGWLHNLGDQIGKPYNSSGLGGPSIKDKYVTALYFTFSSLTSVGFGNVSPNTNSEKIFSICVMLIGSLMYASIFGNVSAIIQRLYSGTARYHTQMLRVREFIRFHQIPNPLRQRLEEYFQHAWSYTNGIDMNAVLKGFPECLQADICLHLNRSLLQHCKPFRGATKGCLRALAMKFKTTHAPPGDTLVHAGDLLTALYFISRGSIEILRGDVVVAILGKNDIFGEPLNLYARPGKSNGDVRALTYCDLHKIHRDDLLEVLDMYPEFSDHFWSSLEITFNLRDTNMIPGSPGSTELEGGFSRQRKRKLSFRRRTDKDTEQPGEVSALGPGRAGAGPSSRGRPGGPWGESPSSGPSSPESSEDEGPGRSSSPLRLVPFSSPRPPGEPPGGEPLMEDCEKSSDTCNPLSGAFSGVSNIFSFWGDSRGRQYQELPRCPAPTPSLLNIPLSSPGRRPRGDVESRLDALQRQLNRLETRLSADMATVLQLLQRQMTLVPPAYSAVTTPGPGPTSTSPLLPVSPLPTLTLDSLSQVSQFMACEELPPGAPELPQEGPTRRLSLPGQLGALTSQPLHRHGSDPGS

5HT2a (rat), sequence (P14842 whole entry): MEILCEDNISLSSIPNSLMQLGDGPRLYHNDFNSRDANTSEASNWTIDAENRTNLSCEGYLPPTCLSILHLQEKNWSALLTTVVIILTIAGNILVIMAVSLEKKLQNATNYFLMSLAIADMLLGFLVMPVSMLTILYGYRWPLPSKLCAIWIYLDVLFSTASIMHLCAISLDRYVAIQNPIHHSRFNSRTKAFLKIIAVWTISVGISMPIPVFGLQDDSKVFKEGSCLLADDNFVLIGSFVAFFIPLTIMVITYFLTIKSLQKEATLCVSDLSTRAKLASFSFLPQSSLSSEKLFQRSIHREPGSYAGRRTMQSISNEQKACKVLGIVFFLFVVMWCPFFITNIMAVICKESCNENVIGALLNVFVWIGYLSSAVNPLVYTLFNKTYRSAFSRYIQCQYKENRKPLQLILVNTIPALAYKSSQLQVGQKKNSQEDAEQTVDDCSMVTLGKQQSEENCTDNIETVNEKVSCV
T2 sequence (P30546 whole entry): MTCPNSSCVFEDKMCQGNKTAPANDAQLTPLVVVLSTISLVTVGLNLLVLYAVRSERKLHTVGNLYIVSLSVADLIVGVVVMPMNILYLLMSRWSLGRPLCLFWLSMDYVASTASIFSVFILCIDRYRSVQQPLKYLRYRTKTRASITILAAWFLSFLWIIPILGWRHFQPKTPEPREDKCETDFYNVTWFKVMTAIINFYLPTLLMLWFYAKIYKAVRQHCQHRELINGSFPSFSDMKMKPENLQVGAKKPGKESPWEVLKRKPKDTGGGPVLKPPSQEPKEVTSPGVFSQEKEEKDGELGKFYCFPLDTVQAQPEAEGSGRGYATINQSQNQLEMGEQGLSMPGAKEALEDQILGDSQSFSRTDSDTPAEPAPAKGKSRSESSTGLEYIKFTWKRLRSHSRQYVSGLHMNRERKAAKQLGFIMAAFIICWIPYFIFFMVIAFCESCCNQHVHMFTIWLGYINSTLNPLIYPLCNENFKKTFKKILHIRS
human H1 receptor, sequence (P35367 whole entry): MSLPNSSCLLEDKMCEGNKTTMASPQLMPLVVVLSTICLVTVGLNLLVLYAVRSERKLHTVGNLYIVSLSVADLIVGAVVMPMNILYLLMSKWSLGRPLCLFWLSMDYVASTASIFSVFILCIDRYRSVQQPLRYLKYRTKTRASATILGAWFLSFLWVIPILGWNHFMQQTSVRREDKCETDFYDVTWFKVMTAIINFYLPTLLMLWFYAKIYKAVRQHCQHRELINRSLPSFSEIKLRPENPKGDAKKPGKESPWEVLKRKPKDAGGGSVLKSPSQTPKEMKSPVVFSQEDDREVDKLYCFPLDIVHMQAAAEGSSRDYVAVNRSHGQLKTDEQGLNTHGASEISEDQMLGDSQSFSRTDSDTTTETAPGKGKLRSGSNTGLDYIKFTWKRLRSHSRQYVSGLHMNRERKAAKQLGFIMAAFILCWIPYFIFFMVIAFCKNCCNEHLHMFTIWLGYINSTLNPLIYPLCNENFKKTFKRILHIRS
M3 muscarinic receptor, sequence (P20309 whole entry): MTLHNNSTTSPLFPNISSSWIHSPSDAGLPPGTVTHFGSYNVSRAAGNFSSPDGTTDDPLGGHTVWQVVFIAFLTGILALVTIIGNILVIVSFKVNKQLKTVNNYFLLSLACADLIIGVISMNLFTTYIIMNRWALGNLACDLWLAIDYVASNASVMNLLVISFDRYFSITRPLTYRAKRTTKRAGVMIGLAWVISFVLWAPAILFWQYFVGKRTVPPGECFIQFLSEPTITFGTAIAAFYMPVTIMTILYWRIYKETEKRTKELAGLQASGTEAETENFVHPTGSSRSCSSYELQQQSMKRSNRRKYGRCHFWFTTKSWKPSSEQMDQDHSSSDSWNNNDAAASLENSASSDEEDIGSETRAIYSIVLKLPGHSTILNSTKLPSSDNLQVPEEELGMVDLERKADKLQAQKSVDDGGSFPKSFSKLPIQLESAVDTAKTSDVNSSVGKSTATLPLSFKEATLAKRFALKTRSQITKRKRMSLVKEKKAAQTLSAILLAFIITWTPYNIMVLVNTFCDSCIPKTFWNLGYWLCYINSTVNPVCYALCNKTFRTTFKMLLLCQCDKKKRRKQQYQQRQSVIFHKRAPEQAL
human 5HT2a receptor, sequence (P28223 whole entry): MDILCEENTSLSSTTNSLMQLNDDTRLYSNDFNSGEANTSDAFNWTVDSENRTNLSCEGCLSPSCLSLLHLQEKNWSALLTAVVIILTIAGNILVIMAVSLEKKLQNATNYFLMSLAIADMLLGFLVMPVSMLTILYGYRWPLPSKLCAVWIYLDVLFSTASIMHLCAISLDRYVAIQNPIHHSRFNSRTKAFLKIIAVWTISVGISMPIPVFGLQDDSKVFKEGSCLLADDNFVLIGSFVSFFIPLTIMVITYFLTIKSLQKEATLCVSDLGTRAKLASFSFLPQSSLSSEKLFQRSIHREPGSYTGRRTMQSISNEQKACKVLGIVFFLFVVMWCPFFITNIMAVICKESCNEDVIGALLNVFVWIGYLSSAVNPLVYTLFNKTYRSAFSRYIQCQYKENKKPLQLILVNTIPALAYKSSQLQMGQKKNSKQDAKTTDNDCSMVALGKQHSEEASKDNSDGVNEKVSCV

SMILES | pKi [1] | LUSB 3 mg/kg ([2]; 3 mg/kg) | LUSB 10 mg/kg ([2]; 10 mg/kg) | NREM cumul. 10 mpk ([2]; 10 mpk) | pKi [3] | pKi [4] | pKi [5] | pKi [6] | pKi [7] | pKi [8] | pKi [9] | pKi [10] | pKi [11] | pKi [12] | pKi [13] | HERG [14] [%]
C[N+]1(C)CCC(OC(=O)C(c2ccccc2)c2ccccc2)CC1 [4-DAMP methiodide] | 9.57 | – | – | – | – | – | – | – | – | – | – | – | – | – | – | –
COc1ccc2c(c1)COc1ccc(F)cc1C2=C1CCN(CCCC(=O)O)CC1 [Compound 10520] | – | 4.9 ± 1.7 | 10.0 ± 2.2 | 41 ± 8 | 7.65 | < 5.00 | < 5.00 | < 5.00 | 5.96 | < 5.00 | 7.37 | 6.40 | < 5.00 | < 5.00 | 7.25 | 56.00
